Structures can show the parent of a compound that is named as a salt. Non-standard residues stand in square brackets, D forms with d. Residues, ends and D or L forms follow the SMILES beside them. *: point of attachment. Boc = CC(C)(C)OC(=O)*; CH2Cl = ClC*
Experiments:
enteropeptidase [1] = biological target: T1, enteropeptidase (Homo sapiens, UniProt P98073); assay: Trypsinogen activation assay; type: biochemical; parameters: purchased R&D Systems 1585-SE
Description: In vitro Testing: the Trypsinogen Activation Assay
Material: The following component, used in the present trypsinogen activation assay may be purchased as follows:
In the first step, the enteropeptidase cleaves the trypsinogen in its active form, trypsin. Trypsin, in the second step, cleaves the N-CBZ-Gly-Pro-Arg-p-nitroanilide (pNA) into N-CBZ-Gly-Pro-Arg and p-nitroanilide (pNA). The amount of pNA can be measured at 405 nm, and reflects the amount of trypsin cleaved and thus the inhibitory activity of the molecules tested on the enteropeptidase.
In the first step, the following mix was prepared (50 μl final) • recombinant human enteropeptidase: 1.5 nM final • sodium citrate: […] • candidate molecule or control: 1 μl • trypsinogen: 2.5 μM final
The mix was incubated at room temperature during 10 minutes and the reaction was stopped with 5 μl of HCl 0.4 M.
In the second step, the previous mix was then incubated with a 50 μl mix comprising 1 mM of N-CBZ-Gly-Pro-Arg-pNA, Tris Hcl pH 8.4 20 mM final and NaCl-150 mM final, at room temperature for 10 minutes. The absorbance of the resulting mix was read at 405 nm.
Results are expressed as the percentage of inhibition, which is the absorbance at 405 nm of the reaction in the presence of different concentrations of inhibitor as compared to the value obtained in the absence of inhibitor.

pepsin = pepsin (Homo sapiens, UniProt P0DJD8); details: read-out: Ki (affinity for pepsin); cited from earlier work
Chain of pepsin (P0DJD8 63-388): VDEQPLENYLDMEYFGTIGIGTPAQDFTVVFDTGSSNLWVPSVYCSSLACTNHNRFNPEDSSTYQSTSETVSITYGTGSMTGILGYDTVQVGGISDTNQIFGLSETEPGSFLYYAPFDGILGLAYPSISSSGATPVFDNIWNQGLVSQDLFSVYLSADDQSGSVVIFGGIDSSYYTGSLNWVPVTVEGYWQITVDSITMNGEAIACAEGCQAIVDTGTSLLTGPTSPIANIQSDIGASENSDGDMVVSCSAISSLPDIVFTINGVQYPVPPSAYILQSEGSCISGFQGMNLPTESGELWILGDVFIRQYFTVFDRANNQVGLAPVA

enteropeptidase [2] = biological target: T1, enteropeptidase; assay: Test for enteropeptidase only (data not shown); type: biochemical
[3] = test system: people having Type II diabetes; assay: Treating Type II diabetes: blood glucose study; type: in vivo, human; details: versus control group (placebo)
Method: Type II diabetes is a disease in which the amount of insulin produced by the pancreas is inadequate to meet the body's needs and thus glucose, which is metabolized by insulin is not taken up normally from the blood into the body tissues. Therefore glucose in the blood rises. Type II diabetes is detected by a fasting glucose level of greater than 126 mg/dL measured on two occasions or one blood glucose level of greater than 200 mg/dL on one occasion or two random blood glucose levels of more than 200 mg/dL. Also a glucose tolerance test having a glucose level of more than 200 mg/dL 2 hours after drinking 75 grams of glucose also qualifies an individual as having Type II diabetes.
Two groups of 10 people are used in this study. The first given a treatment of ritonavir at 600 mg taken twice a day, while the other 10 people were given a placebo. The treatment continued for 2 months.
(§1) The study group is advised to follow their normal routine concerning their eating habits and exercise patterns, which is recorded 1 month prior to this study and throughout this study.
At the end of two months blood glucose levels and a glucose tolerance test are tested with all of the people in the study.
(§2) The same study in Example 6 is conducted with a larger group of people having Type II diabetes. Each of the treated groups 1 to 7 is given as amprenavir, atazanavir, indinavir, lopinavir, fosamprenavir, nelfinavir or saquinavir in the same amounts as set forth in Example 3. The control group is given a placebo. At the end of two months another fasting (9-12 hours) lipid profile is taken.

[4] = test system: persons having hyperlipidemia; assay: Treating hyperlipidemia: fasting lipid profile study; type: in vivo, human; details: fasting (9-12 hours), versus control group
Method: Hyperlipidemia is an elevation of lipids in the bloodstream. These lipids include, for example, cholesterol and triglycerides. General hyperlipidemia is determined by the results of a lipid profile. The lipid profile includes LDL, HDL, triglycerides and total cholesterol measurements. A group of persons having hyperlipidemia with a total cholesterol level greater than 240 mg/dl, an HDL (high density lipid) of below 40 mg/ml, a triglyceride level of greater than 200 mg/dl and an LDL (low density lipid) level of over 160 mg/ml, after a 9 to 12 hours of fasting, are chosen for this study.
10 people are given a treatment of ritonavir at 600 mg taken twice a day. The other 10 people are given a placebo. The treatment continued for 2 months.
as §1
At the end of two months another fasting (9-12 hours) lipid profile is taken.
as §2, with “8” for “6”, “hyperlipidemia.” for “Type II diabetes.”

[5] = biological target: Recombinant human enteropeptidase (human, UniProt P98073 41-1019, limits assumed); assay: cell-based or functional assay
Chain of Recombinant human enteropeptidase (P98073 41-1019 E134Q/P732S limits assumed): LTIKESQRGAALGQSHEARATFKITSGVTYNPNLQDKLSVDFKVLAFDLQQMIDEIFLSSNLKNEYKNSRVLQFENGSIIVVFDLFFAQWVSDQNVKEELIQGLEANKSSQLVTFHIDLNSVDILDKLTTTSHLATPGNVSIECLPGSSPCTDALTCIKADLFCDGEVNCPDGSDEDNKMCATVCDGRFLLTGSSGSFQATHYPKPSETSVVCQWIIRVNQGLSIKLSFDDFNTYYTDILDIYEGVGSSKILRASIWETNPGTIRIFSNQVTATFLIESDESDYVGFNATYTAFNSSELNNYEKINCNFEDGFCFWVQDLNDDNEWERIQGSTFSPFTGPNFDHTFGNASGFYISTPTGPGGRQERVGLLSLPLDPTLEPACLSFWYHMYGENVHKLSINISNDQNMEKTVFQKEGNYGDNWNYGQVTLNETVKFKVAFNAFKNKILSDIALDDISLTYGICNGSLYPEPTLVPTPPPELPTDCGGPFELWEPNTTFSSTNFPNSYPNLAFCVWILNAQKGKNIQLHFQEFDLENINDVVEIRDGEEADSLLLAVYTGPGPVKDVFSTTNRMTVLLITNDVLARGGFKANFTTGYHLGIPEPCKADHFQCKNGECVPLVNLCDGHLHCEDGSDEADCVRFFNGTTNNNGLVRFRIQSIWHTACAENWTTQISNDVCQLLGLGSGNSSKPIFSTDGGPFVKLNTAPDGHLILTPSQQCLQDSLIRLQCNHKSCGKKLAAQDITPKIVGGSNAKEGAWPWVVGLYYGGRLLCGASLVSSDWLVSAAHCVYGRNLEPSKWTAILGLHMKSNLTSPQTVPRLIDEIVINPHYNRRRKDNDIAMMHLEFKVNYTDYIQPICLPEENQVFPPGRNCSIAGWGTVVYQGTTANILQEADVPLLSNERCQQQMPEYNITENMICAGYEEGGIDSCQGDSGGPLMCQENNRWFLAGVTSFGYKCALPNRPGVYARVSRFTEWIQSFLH

[6] = Example 7, groups 1 to 7, two months
[7] = Example 9, groups 1 to 7, two months

T1 sequence (P98073 whole entry): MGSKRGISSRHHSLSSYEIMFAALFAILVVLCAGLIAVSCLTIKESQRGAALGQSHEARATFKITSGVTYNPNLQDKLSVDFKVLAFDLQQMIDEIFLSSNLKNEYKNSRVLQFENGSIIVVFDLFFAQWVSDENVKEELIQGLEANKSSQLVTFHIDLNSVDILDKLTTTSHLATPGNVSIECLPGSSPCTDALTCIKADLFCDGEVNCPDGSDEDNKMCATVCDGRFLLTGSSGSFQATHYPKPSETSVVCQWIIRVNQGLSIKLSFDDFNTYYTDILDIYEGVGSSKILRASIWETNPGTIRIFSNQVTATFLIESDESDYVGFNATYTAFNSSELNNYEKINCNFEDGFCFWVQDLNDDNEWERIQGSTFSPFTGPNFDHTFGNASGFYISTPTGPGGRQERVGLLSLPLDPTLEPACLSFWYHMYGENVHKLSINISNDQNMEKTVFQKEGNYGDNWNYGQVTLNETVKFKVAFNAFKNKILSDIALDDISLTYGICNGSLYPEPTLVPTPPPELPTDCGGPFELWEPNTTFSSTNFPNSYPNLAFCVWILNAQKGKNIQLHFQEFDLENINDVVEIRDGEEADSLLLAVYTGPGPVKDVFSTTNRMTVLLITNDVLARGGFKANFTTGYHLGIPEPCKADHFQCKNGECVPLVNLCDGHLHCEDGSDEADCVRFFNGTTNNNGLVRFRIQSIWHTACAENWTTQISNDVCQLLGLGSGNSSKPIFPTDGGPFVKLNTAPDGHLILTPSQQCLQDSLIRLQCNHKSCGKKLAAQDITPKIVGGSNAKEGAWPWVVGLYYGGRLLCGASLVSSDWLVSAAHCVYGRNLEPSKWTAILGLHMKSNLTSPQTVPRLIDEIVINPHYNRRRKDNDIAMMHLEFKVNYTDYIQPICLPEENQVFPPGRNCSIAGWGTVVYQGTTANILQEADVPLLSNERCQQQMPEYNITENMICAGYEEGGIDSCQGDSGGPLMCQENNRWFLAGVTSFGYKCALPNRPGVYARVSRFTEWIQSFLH

Row | Molecule | levels of blood glucose [3, 6] | levels of HDL [4, 7] | levels of LDL [4, 7] | levels of cholesterol [4, 7] | levels of triglycerides [4, 7] | further results
1 | CC(=O)N[C@@H](CC(C)C)C(=O)N[C@H](C(=O)N[C@H](C=O)CCCCN)C(C)C [AC-Leu-Val-Lys-Aldhehyde] (Ac-Leu-Val-Lys-aldehyde) |  |  |  |  |  | IC50 (enteropeptidase [1]; trypsinogen activation assay, FIG. 6, enteropeptidase 1.5 nM, trypsinogen 2.5 μM): ~3 µM
2 | CC(C)[C@H](NC(=O)[C@H](Cc1ccccc1)C[C@H](O)[C@H](Cc1ccccc1)NC(=O)OC(C)(C)C)C(=O)N[C@@H](Cc1ccccc1)C(=O)N1CCOCC1 [CGP 53437] |  |  |  |  |  | Ki (pepsin): 8 nM
3 | N=C(N)NCCC[C@H](NC(=O)[C@@H]1CCCN1C(=O)[C@H](N)Cc1ccc(O)cc1)C(=O)CCl [H-D-Tyr-Pro-Arg-chloromethylketone trifluororoacetate salt] (H-[dY]-Pro-Arg-CH2Cl) |  |  |  |  |  | IC50 when tested for enteropeptidase only, compared with the ones reported in FIG. 6 (enteropeptidase [2]): higher
4 | CC(C)CN(C[C@@H](O)[C@H](Cc1ccccc1)NC(=O)O[C@H]1CCOC1)S(=O)(=O)c1ccc(N)cc1 [amprenavir] | significantly reduced | higher | significantly reduced | significantly reduced | significantly reduced | 
5 | COC(=O)N[C@H](C(=O)N[C@@H](Cc1ccccc1)[C@@H](O)CN(Cc1ccc(-c2ccccn2)cc1)NC(=O)[C@@H](NC(=O)OC)C(C)(C)C)C(C)(C)C [atazanavir] | significantly reduced | higher | significantly reduced | significantly reduced | significantly reduced | 
6 | CC(C)CN(C[C@@H](OP(=O)(O)O)[C@H](Cc1ccccc1)NC(=O)O[C@H]1CCOC1)S(=O)(=O)c1ccc(N)cc1 [fosamprenavir] | significantly reduced | higher | significantly reduced | significantly reduced | significantly reduced | 
7 | CC(C)(C)NC(=O)[C@@H]1CN(Cc2cccnc2)CCN1C[C@@H](O)C[C@@H](Cc1ccccc1)C(=O)N[C@H]1c2ccccc2C[C@H]1O [indinavir] | significantly reduced | higher | significantly reduced | significantly reduced | significantly reduced | 
8 | Cc1cccc(C)c1OCC(=O)N[C@@H](Cc1ccccc1)[C@@H](O)C[C@H](Cc1ccccc1)NC(=O)[C@H](C(C)C)N1CCCNC1=O [lopinavir] | significantly reduced | higher | significantly reduced | significantly reduced | significantly reduced | 
9 | Cc1c(O)cccc1C(=O)N[C@@H](CSc1ccccc1)[C@H](O)CN1C[C@H]2CCCC[C@H]2C[C@H]1C(=O)NC(C)(C)C [nelfinavir] | significantly reduced | higher | significantly reduced | significantly reduced | significantly reduced | 
10 | CC(C)c1nc(CN(C)C(=O)N[C@H](C(=O)N[C@@H](Cc2ccccc2)C[C@H](O)[C@H](Cc2ccccc2)NC(=O)OCc2cncs2)C(C)C)cs1 [ritonavir] |  |  |  |  |  | levels of blood glucose ([3]; 600 mg twice a day, 2 months): significantly reduced; levels of HDL ([4]; 600 mg twice a day, 2 months): higher; levels of LDL ([4]; 600 mg twice a day, 2 months): significantly reduced; levels of total cholesterol ([4]; 600 mg twice a day, 2 months): significantly reduced; levels of triglycerides ([4]; 600 mg twice a day, 2 months): significantly reduced
11 | CC(C)(C)NC(=O)[C@@H]1C[C@@H]2CCCC[C@@H]2CN1C[C@@H](O)[C@H](Cc1ccccc1)NC(=O)[C@H](CC(N)=O)NC(=O)c1ccc2ccccc2n1 [saquinavir] | significantly reduced | higher | significantly reduced | significantly reduced | significantly reduced | 
12 | AC-Leu-Val-Lys-Aldhehyde (peptide) |  |  |  |  |  | IC50 in the trypsinogen activation assay (percentage of inhibition, absorbance of pNA at 405 nM) [5]: 3 µM
13 | BOC-Ala-Glu-Val-Asp-Aldehyde (Boc-AEVD-aldehyde; SMILES CC(C)[C@H](NC(=O)[C@H](CCC(=O)O)NC(=O)[C@H](C)NC(=O)OC(C)(C)C)C(=O)N[C@H](C=O)CC(=O)O) [negative control, Bachem N-1755] |  |  |  |  |  | inhibition (enteropeptidase [1]; tested at 10 μm): no inhibition
14 | Z-Asp-Glu-Val-Asp-chloromethylketone |  |  |  |  |  | IC50 when tested for enteropeptidase only, compared with the ones reported in FIG. 6 (enteropeptidase [2]): higher; inhibition (enteropeptidase [1]; tested at 50 μm): no inhibition
15 | {1,5‑dansyl}-Glu-Gly-Arg-CH2Cl (also: dihydrochloride salt) [1,5-Dansyl-Glu-Gly-Arg-chloromethylketone dihydrochloride] |  |  |  |  |  | IC50 in the trypsinogen activation assay (percentage of inhibition, absorbance of pNA at 405 nM) [5]: ~24.7 nM
16 | H-[dY]-Pro-Arg-CH2Cl (also: trifluoroacetate salt) [H-D-Tyr-Pro-Arg-chloromethylketone trifluororoacetate salt] |  |  |  |  |  | IC50 in the trypsinogen activation assay (percentage of inhibition, absorbance of pNA at 405 nM) [5]: ~35 nM

— patent US20070298025A1, “Pharmaceutical Compositions and Methods for Reducing Body Fat” (Obe Therapy Biotechnology S.A.S., priority 2004, published 2007)
